Data published in the supplement of paper PMC13207355.

What was measured:
Conditions in all cases: exposure time: 72 h
E31 [1] = patient-derived glioblastoma stem cells of proneural subtype; test: surviving fraction (nuclei count normalised to DMSO); higher = more cells surviving (less toxic)
FT3469 [2] = normal neural stem cell line; test: as above
E34 [3] = patient-derived glioblastoma stem cells of proneural subtype; test: as above
E21 [4] = patient-derived glioblastoma stem cells of mesenchymal subtype; test: as above
E28 [5] = patient-derived glioblastoma stem cells of classical subtype; test: as above
E57 [6] = patient-derived glioblastoma stem cells of mesenchymal subtype; test: as above
E13 [7] = patient-derived glioblastoma stem cells of classical subtype; test: as above
E31 [8] = test: phenotypic distance (Euclidean, principal components) from DMSO controls (arbitrary units); higher = stronger morphological change
FT3469 [9] = test: as above
E34 [10] = test: as above
E21 [11] = test: as above
E28 [12] = test: as above
E57 [13] = test: as above
E13 [14] = test: as above
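For phenotypic distance (Euclidean, principal components) from DMSO controls in this document: cell Painting imaging in 384-well plates, CellProfiler features reduced to at least 20 principal components, Euclidean distance versus same-plate DMSO vehicle wells (0.1% v/v), median over six images per well.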
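For surviving fraction (nuclei count normalised to DMSO) in this document: nuclei counted by high-content imaging of Hoechst-stained cells in laminin-coated 384-well plates, relative to 0.1% DMSO vehicle wells, with staurosporine as cell-death control.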

Cc1cc(/C=C/c2ccc3cc(N(C)C)ccc3[n+]2C)c(C)n1-c1ccccc1 [Pyrvinium pamoate]
Conditions	phenotypic distance	surviving fraction
E13 [7], 4.1 nM	–	0.769
E13 [7], 12.3 nM	–	0.742
E13 [7], 37 nM	–	0.57
E13 [7], 111.1 nM	–	0.408
E13 [7], 333.3 nM	–	0.479
E13 [7], 1000 nM	–	0.264
E13 [7], 3000 nM	–	0.0823
E13 [14], 4.1 nM	4.29	–
E13 [14], 12.3 nM	1.32	–
E13 [14], 37 nM	2.18	–
E13 [14], 111.1 nM	4.63	–
E13 [14], 333.3 nM	4.15	–
E13 [14], 1000 nM	4.49	–
E13 [14], 3000 nM	6.77	–
E21 [4], 4.1 nM	–	0.856
E21 [4], 12.3 nM	–	0.815
E21 [4], 37 nM	–	0.577
E21 [4], 111.1 nM	–	0.467
E21 [4], 333.3 nM	–	0.425
E21 [4], 1000 nM	–	0.149
E21 [4], 3000 nM	–	0.00213
E21 [11], 4.1 nM	0.978	–
E21 [11], 12.3 nM	1.16	–
E21 [11], 37 nM	2.86	–
E21 [11], 111.1 nM	4.87	–
E21 [11], 333.3 nM	4.65	–
E21 [11], 1000 nM	6.33	–
E21 [11], 3000 nM	23.7	–
E28 [5], 4.1 nM	–	0.853
E28 [5], 12.3 nM	–	0.704
E28 [5], 37 nM	–	0.547
E28 [5], 111.1 nM	–	0.278
E28 [5], 333.3 nM	–	0.195
E28 [5], 1000 nM	–	0.106
E28 [5], 3000 nM	–	0.0134
E28 [12], 4.1 nM	0.873	–
E28 [12], 12.3 nM	1.67	–
E28 [12], 37 nM	2.93	–
E28 [12], 111.1 nM	4.57	–
E28 [12], 333.3 nM	4.5	–
E28 [12], 1000 nM	4.93	–
E28 [12], 3000 nM	9.86	–
E31 [1], 4.1 nM	–	1.01
E31 [1], 12.3 nM	–	0.828
E31 [1], 37 nM	–	0.484
E31 [1], 111.1 nM	–	0.21
E31 [1], 333.3 nM	–	0.146
E31 [1], 1000 nM	–	0.0654
E31 [1], 3000 nM	–	0
E31 [8], 4.1 nM	1.33	–
E31 [8], 12.3 nM	1.04	–
E31 [8], 37 nM	2.33	–
E31 [8], 111.1 nM	5.34	–
E31 [8], 333.3 nM	7.12	–
E31 [8], 1000 nM	9.54	–
E31 [8], 3000 nM	18.8	–
E34 [3], 4.1 nM	–	0.92
E34 [3], 12.3 nM	–	0.867
E34 [3], 37 nM	–	0.645
E34 [3], 111.1 nM	–	0.578
E34 [3], 333.3 nM	–	0.667
E34 [3], 1000 nM	–	0.443
E34 [3], 3000 nM	–	0.5
E34 [10], 4.1 nM	0.966	–
E34 [10], 12.3 nM	0.752	–
E34 [10], 37 nM	1.33	–
E34 [10], 111.1 nM	3.14	–
E34 [10], 333.3 nM	3.58	–
E34 [10], 1000 nM	4.06	–
E34 [10], 3000 nM	6.46	–
E57 [6], 4.1 nM	–	1.05
E57 [6], 12.3 nM	–	1.01
E57 [6], 37 nM	–	0.785
E57 [6], 111.1 nM	–	0.364
E57 [6], 333.3 nM	–	0.272
E57 [6], 1000 nM	–	0.155
E57 [6], 3000 nM	–	0.0231
E57 [13], 4.1 nM	1.23	–
E57 [13], 12.3 nM	0.86	–
E57 [13], 37 nM	2.14	–
E57 [13], 111.1 nM	6.51	–
E57 [13], 333.3 nM	7.55	–
E57 [13], 1000 nM	8.44	–
E57 [13], 3000 nM	11.2	–
FT3469 [2], 4.1 nM	–	0.97
FT3469 [2], 12.3 nM	–	0.882
FT3469 [2], 37 nM	–	0.866
FT3469 [2], 111.1 nM	–	0.677
FT3469 [2], 333.3 nM	–	0.61
FT3469 [2], 1000 nM	–	0.461
FT3469 [2], 3000 nM	–	0.0541
FT3469 [9], 4.1 nM	1.38	–
FT3469 [9], 12.3 nM	1.31	–
FT3469 [9], 37 nM	2.27	–
FT3469 [9], 111.1 nM	2.94	–
FT3469 [9], 333.3 nM	3.78	–
FT3469 [9], 1000 nM	7.4	–
FT3469 [9], 3000 nM	13	–
